Target: mouse brain RyR2 (Mus musculus, UniProt E9Q401)
Assay: Single-channel current recordings of RyR2 incorporated in artificial lipid bilayer

Chain of mouse brain RyR2 (E9Q401 whole entry): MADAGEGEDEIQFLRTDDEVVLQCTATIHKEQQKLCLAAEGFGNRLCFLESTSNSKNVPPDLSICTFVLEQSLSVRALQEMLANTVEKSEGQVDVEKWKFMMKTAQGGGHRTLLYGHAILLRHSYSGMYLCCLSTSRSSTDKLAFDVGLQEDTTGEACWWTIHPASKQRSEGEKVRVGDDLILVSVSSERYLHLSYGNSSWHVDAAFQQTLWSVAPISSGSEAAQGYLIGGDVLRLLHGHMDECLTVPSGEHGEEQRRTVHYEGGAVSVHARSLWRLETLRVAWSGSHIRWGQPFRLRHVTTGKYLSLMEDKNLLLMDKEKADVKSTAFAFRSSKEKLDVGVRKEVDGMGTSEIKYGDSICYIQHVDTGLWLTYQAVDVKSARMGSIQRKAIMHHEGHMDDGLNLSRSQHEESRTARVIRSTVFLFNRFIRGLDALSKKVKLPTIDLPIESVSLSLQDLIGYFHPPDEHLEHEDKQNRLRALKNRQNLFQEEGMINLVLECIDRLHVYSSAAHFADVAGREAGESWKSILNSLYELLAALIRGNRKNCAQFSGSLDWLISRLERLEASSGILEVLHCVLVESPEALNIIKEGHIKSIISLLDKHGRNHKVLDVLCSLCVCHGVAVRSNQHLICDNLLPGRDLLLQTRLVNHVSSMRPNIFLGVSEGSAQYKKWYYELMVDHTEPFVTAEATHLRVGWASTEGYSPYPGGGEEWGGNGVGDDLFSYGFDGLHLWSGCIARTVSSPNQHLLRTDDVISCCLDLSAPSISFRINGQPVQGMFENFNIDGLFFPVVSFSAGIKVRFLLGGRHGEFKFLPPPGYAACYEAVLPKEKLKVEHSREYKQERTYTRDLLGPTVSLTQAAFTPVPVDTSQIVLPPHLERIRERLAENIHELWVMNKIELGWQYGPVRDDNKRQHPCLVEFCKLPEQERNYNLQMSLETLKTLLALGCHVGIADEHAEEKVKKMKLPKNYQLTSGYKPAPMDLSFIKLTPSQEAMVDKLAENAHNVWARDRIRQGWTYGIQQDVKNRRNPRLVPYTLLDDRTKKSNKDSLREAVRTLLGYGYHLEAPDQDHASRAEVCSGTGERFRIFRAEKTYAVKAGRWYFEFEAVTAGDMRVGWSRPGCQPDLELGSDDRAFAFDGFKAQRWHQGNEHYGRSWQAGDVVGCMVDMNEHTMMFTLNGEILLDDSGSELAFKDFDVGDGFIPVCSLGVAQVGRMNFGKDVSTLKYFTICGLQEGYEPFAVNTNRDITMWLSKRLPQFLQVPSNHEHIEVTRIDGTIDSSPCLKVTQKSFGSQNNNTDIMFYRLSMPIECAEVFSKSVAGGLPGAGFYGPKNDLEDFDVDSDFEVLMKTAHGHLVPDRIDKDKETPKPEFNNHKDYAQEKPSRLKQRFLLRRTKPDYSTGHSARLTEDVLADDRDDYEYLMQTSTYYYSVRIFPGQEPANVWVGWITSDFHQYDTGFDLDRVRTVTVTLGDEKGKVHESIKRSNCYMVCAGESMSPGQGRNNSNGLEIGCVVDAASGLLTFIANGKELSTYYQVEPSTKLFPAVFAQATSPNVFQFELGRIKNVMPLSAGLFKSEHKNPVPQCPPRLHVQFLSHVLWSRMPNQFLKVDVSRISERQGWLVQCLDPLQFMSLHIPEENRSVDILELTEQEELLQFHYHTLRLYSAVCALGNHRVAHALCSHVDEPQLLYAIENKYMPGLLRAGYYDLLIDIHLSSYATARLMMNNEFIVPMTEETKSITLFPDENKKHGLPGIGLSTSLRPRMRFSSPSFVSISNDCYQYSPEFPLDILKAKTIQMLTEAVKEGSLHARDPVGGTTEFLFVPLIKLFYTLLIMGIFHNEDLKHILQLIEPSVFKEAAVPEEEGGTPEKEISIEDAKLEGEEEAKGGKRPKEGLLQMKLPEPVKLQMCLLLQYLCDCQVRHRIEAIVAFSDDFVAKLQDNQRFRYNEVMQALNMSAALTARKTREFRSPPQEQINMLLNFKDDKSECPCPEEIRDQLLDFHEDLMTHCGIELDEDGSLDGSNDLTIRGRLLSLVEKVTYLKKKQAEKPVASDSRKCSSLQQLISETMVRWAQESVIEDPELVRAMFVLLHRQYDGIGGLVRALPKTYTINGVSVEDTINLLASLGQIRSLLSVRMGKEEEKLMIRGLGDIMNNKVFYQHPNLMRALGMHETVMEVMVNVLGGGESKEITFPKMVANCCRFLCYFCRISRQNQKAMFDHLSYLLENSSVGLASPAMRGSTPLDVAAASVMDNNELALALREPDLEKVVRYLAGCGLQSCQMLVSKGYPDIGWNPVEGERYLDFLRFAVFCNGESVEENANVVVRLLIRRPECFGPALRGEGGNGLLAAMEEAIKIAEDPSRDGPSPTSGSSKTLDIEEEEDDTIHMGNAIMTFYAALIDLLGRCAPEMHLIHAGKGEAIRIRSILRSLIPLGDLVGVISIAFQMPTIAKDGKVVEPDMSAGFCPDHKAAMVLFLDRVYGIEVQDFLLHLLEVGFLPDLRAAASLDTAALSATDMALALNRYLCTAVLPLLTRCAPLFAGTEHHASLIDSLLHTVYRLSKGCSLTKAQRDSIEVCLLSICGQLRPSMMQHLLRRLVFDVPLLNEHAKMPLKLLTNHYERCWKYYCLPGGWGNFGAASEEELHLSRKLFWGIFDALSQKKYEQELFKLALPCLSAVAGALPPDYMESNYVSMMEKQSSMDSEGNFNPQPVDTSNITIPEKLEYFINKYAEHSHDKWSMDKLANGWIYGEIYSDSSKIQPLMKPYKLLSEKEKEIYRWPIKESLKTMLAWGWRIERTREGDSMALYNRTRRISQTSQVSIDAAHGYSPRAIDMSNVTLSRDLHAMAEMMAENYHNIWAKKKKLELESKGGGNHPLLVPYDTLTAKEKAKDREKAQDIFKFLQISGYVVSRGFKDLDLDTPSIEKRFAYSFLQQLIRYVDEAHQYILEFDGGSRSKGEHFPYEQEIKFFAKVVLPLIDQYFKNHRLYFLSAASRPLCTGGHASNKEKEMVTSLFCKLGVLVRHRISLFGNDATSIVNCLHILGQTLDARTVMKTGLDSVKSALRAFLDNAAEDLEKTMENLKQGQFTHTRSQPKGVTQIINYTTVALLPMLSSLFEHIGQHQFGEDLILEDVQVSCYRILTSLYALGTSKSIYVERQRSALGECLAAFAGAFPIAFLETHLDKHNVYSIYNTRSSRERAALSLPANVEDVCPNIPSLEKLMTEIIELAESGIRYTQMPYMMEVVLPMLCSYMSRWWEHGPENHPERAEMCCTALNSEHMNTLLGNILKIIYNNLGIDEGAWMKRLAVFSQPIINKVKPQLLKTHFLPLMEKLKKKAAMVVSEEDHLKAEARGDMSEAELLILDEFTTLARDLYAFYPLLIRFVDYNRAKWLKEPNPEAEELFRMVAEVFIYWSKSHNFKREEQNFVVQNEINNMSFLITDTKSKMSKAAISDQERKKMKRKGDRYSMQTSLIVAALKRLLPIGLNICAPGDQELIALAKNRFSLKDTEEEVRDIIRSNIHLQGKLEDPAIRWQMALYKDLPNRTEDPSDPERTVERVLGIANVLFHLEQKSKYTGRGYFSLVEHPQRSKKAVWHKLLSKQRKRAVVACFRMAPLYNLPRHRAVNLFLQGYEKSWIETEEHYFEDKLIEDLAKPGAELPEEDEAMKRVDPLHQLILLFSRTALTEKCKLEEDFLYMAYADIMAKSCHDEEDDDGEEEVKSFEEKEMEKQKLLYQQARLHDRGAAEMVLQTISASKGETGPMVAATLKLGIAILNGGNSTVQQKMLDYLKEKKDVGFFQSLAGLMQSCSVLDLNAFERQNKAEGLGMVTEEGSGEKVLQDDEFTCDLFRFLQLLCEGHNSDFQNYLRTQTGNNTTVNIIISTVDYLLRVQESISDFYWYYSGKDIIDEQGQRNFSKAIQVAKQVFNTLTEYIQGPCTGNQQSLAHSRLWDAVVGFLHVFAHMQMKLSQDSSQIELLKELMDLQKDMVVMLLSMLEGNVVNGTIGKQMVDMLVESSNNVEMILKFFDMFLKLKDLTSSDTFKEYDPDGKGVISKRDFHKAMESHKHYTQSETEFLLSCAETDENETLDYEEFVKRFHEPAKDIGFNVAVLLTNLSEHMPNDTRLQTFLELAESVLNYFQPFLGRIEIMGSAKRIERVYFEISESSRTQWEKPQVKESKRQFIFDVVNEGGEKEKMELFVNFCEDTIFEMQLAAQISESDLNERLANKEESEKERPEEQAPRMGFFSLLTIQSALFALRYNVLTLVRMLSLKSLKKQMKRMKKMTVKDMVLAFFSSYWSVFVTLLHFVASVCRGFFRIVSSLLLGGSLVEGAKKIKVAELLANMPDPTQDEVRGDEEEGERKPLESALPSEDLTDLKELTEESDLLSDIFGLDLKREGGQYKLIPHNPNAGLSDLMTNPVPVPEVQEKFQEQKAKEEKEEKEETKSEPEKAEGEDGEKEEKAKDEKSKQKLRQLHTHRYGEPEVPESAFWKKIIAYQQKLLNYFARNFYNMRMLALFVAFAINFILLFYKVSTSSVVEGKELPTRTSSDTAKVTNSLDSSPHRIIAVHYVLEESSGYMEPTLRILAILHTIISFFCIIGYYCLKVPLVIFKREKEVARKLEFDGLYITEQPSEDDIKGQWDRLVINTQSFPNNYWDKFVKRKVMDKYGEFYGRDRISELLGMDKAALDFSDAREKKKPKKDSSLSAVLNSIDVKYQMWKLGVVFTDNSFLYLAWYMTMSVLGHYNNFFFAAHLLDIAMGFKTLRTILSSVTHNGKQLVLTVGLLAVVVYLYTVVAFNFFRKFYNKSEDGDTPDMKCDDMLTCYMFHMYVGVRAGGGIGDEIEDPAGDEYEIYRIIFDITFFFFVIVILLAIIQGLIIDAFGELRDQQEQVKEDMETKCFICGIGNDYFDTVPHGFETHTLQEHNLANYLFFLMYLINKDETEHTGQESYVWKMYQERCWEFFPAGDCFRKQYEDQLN

N.N.N.N.N.N.N.N.N.N.N.N.N.N.[Cl-].[Cl-].[Cl-].[Cl-].[Cl-].[Cl-].[O-2].[O-2].[Ru+3].[Ru+3].[Ru+4] [Ruthenium Red]
block of ERβ-activated RyR2 single channel currents (20 μM Ruthenium Red after ERβ (FIG. 1A)): blocked
RyR channel block (25 μM ruthenium red after ERβ (FIG. 10A, 11A)): complete channel block
